According to ChEMBL document CHEMBL3616467, “One-pot synthesis of new triazole--Imidazo[2,1-b][1,3,4]thiadiazole hybrids via click chemistry and evaluation of their antitubercular activity” (Bioorg Med Chem Lett, 2015):
≈ marks a conversion by molar mass, not a printed value.

Experiments:
[1] = Cytotoxicity against mouse NIH/3T3 cells assessed as growth inhibition at 50 ug/ml after 48 hrs by MTT assay relative to control; assay type: cell-based, NIH3T3; settings: read-out: GI
[2] = tested on: Mycobacterium tuberculosis; test: Antitubercular activity against Mycobacterium tuberculosis H37Rv ATCC 27294 after 28 days by agar dilution method; assay type: functional; settings: H37Rv ATCC 27294, 672 h

| Structure (SMILES) | inhibition at 48 h, 50 ug/ml [1] | MIC [2] |
| --- | --- | --- |
| CCOC(=O)Cn1cc(COCc2c(-c3ccc(Cl)cc3)nc3sc(C)nn23)nn1 | 28.2% | 12.5 µg/mL (≈ 28 µM) |
| COc1ccc(-c2nc3sc(C)nn3c2COCc2cn(CC#N)nn2)cc1 |  | 50 µg/mL (≈ 126 µM) |
| CC[C@@H](CO)NCCN[C@@H](CC)CO [ETHAMBUTOL] |  | 3.12 µg/mL (≈ 15.3 µM) |
| CCn1cc(COCc2c(-c3ccc(C)cc3)nc3sc(C)nn23)nn1 |  | 25 µg/mL (≈ 67.8 µM) |
| COc1ccc(-c2nc3sc(C)nn3c2COCc2cn(Cc3ccccc3F)nn2)cc1 |  | 25 µg/mL (≈ 53.8 µM) |
| Cc1nn2c(COCc3cn(Cc4ccccc4F)nn3)c(-c3ccc(Cl)cc3)nc2s1 |  | 50 µg/mL (≈ 107 µM) |
| CCn1cc(COCc2c(-c3ccc(OC)cc3)nc3sc(C)nn23)nn1 |  | 25 µg/mL (≈ 65 µM) |
| Cc1ccc(-c2nc3sc(C)nn3c2COCc2cn(Cc3ccccc3)nn2)cc1 |  | 25 µg/mL (≈ 58.1 µM) |
| Cc1nn2c(COCc3cn(C(C)C)nn3)c(-c3ccc(Cl)cc3)nc2s1 |  | 50 µg/mL (≈ 124 µM) |
| NNC(=O)c1ccncc1 [ISONIAZID] |  | 0.1 µg/mL (≈ 0.729 µM) |
| Cc1ccc(-c2nc3sc(C)nn3c2COCc2cn(Cc3ccc(F)cc3)nn2)cc1 |  | 50 µg/mL (≈ 111 µM) |
| CCOC(=O)Cn1cc(COCc2c(-c3ccc(OC)cc3)nc3sc(C)nn23)nn1 |  | 50 µg/mL (≈ 113 µM) |
| COc1ccc(-c2nc3sc(C)nn3c2COCc2cn(Cc3ccccc3)nn2)cc1 | 22.7% | 3.12 µg/mL (≈ 7 µM) |
| CCOC(=O)Cn1cc(COCc2c(-c3ccc(C)cc3)nc3sc(C)nn23)nn1 |  | 50 µg/mL (≈ 117 µM) |
| COc1ccc(-c2nc3sc(C)nn3c2COCc2cn(Cc3ccc(F)cc3)nn2)cc1 | 19.1% | 12.5 µg/mL (≈ 26.9 µM) |
| Cc1ccc(-c2nc3sc(C)nn3c2COCc2cn(CC#N)nn2)cc1 |  | 25 µg/mL (≈ 65.9 µM) |
| Cc1nn2c(COCc3cn(CC#N)nn3)c(-c3ccc(Cl)cc3)nc2s1 | 27.3% | 6.25 µg/mL (≈ 15.6 µM) |
| Cc1nn2c(COCc3cn(CC(=O)O)nn3)c(-c3ccc(Cl)cc3)nc2s1 |  | 50 µg/mL (≈ 119 µM) |
| CCn1cc(COCc2c(-c3ccc(Cl)cc3)nc3sc(C)nn23)nn1 | 20.1% | 3.12 µg/mL (≈ 8.04 µM) |
| NC(=O)c1cnccn1 [PYRAZINAMIDE] |  | 50 µg/mL (≈ 406 µM) |
| Cc1nn2c(COCc3cn(Cc4ccccc4)nn3)c(-c3ccc(Cl)cc3)nc2s1 |  | 25 µg/mL (≈ 55.4 µM) |
| Cc1ccc(-c2nc3sc(C)nn3c2COCc2cn(Cc3ccccc3F)nn2)cc1 |  | 50 µg/mL (≈ 111 µM) |
| Cc1nn2c(COCc3cn(Cc4ccc(F)cc4)nn3)c(-c3ccc(Cl)cc3)nc2s1 |  | 25 µg/mL (≈ 53.3 µM) |
